“Also recorded” adds a separate entry of the source.
Columns and labels:
[1] = oral bioavailability in mice; details: mouse, in vivo
mice = experiment: antidepressant-relevant behavioral actions after oral administration; type: in vivo, mouse
Male C57BL/6J mice [2] = experiment: naloxone-precipitated morphine withdrawal symptoms; type: in vivo, mouse; details: 10 mg/kg i.p. 10 min before naloxone 1 mg/kg
Source text: (§1) Animals: Male C57BL/6J mice (8 weeks old, Jackson laboratories) were kept in a temperature and humidity-controlled environment and maintained in a 12:12 hr light/dark cycle (lights on at 7:00 AM). Mice were singly-housed for all the studies due to increased aggression following opioid administration and were randomly assigned to treatment groups.
Drugs: (2R,6R)-HNK hydrochloride was synthesized and characterized. Absolute and relative stereochemistry for (2R,6R)-HNK was confirmed by small molecule x-ray crystallography. For the intraperitoneal injections, drugs were dissolved in 0.9% saline and given in a volume of 5 ml/kg.
Precipitated morphine withdrawal symptoms: Mice were given a single injection of saline or morphine (10 mg/kg) in their home cages for 4 days. On Day 5, 1 hr and 50 min after their last saline or morphine injection, mice were given a single injection of saline or (2R,6R)-HNK (10 mg/kg) and 10 min later were given another injection of either saline or the opioid receptor antagonist naloxone (1 mg/kg, i.p.). The mice were immediately placed in plexiglass cylinders and their behaviors were monitored and live-scored for 25 min by an experimenter blind to any treatment conditions. Behaviors that were scored included: number of jumps (escape behavior), number of paw tremors, and occurrence (1 point) or not in each 5-min interval for the following symptoms: stereotypic sniffing, stereotypic rearing, eye ptosis, piloerection, head nodding and swallowing (FIGS. 9A-9H). An average score for each animal was given after analyzing all the withdrawal symptoms (FIG. 10).

Male C57BL/6J mice [3] = experiment: sub-threshold social defeat stress in mice previously exposed to morphine; type: in vivo, mouse
Source text: as §1
Drugs: (2R,6R)-HNK hydrochloride was synthesized and characterized. Absolute and relative stereochemistry for (2R,6R)-HNK was confirmed by small molecule x-ray crystallography. For the intraperitoneal injections, drugs were dissolved in 0.9% saline and given in a volume of 5 ml/kg. […]
Social interaction test: Following the sub-threshold social defeat stress, on day 16, test mice were screened for susceptibility in a social interaction/avoidance choice test. […] The time spent interacting (nose within close proximity of the cage) with the “stranger” mouse versus the empty cage was analyzed using TopScan video tracking software (CleverSys, Reston, Virginia). % Social Interaction was calculated as the time spent interacting with stranger divided by the total time interacting with the end-chamber cages×100.
Sucrose preference: Following the social interaction test, mice were assessed for sucrose preference in their home cages. […]

[4] = 10 mg/kg, i.p.; cited from earlier work

In the case of N[C@@]1(c2ccccc2Cl)CCC[C@@H](O)C1=O [(2R,6R)-HNK, (2R,6R)-hydroxynorketamine], the bioavailability [1] is reported as about 50%, the “oral doses exerting antidepressant-relevant behavioral actions” value (mice) is reported as 15 to 50 mg/kg and the “average precipitated withdrawal symptoms of morphine” value (Male C57BL/6J mice [2]) is reported as “overall reduction”. The escape-related jumping behavior (Male C57BL/6J mice [2]) was “increasing the escape-related jumping behavior”, the paw tremors (Male C57BL/6J mice [2]) was “decreased paw tremors” and the “somatic symptoms following naloxone-precipitated morphine withdrawal” value (Male C57BL/6J mice [2]) was “decreases somatic symptoms”. The “stress susceptibility phenotypes / emotional deficits (social interaction, sucrose preference, female urine sniffing, untorn nestlet weight)” value (Male C57BL/6J mice [3]; 10 mg/kg i.p. 2 hours after sub-threshold social defeat, mice previously exposed to morphine 10 mg/kg) was “reverses emotional deficits; also recorded: reversed stress susceptibility phenotypes”, the “reinstatement of maladaptive behaviors after brief re-exposure to stress” value (Male C57BL/6J mice [3]; 10 mg/kg i.p. after the first defeats, 1 min re-exposure) was “prevents reinstatement” and the “estimated concentration in brain tissue” value [4] was under 20 µmol/kg. For the same molecule, the “estimated concentration in the extracellular hippocampal space” value [4] was under 10 µM.

From patent publication US20230331655A1, “HYDROXYN[…] AND METHODS OF USE THEREOF” (UNIVERSITY OF MARYLAND, BALTIMORE, priority 2020, published 2023)
